target: T1, PACAP-R3 (Homo sapiens, UniProt P41587); test: Cyclic AMP SPA on CHO cells expressing PACAP R3; format: cell-based; parameters: expressed in transfected cells; host or cells: CHO cells (Geneticin selection); conditions: cAMP SPA, CHO cells transfected with PACAP-R3; concentration at which 50% of maximum PACAP27 activity is achieved; NA = no detectable activities; read-out: R3 EC50
T1 sequence (P41587 24-438): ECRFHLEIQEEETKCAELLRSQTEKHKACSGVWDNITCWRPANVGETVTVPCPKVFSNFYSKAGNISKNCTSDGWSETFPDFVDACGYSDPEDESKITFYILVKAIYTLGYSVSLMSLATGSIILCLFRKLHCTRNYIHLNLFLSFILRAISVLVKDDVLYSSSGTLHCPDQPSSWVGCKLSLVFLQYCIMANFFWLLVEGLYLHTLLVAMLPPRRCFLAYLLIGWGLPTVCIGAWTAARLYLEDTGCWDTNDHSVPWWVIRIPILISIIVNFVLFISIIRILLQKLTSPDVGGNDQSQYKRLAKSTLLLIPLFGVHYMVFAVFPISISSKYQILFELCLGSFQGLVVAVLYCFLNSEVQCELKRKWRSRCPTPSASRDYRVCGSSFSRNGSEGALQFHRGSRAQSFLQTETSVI
Description: CHO cells expressing the PACAP R3 were plated in 96-well plates (Costar) at 8×10^4 cell/well and grown at 37 C. for 24 hours in α MEM+nucleosides+glutamine (Giobco BRL), 10% FBS, 100 μg/ml Pen/Strep, 0.3 mg/ml glutamine, 1 mM HEPES, 0.5 mg/ml Geneticin (Gibco BRL). The media was removed and the plates were washed with PBS. The cells were incubated with a peptide, in Hepes-PBS-BSA with 0.4 mg/mlSoybean Trypsin Inhibitor, 0.5 mg/ml Bacitracin, 100 uM IBMX, for 15 min at 37 C. Cyclic AMP in the cell extracts was quantitated using the cAMP SPA direct screening assay system (Amersham Pharmacia Biotech Inc, Piscataway, N.J.,). The peptides shown in Table 3 were assayed for cAMP activity.
EC50 is defined as the concentration of the polypeptide at which 50% of maximum PACAP27 activity is achieved. “NA” denotes no detectable activities. “R3 Selectivity” is derived from the ratio of EC50 at R2 versus EC50 at R3.

| EC50 | SMILES |
| --- | --- |
| 0.5 nM | CC[C@H](C)[C@H](NC(=O)CNC(=O)[C@H](CC(=O)O)NC(=O)[C@H](CO)NC(=O)[C@@H](N)Cc1c[nH]cn1)C(=O)N[C@@H](Cc1ccccc1)C(=O)N[C@H](C(=O)N[C@@H](CC(=O)O)C(=O)N[C@@H](CO)C(=O)N[C@@H](Cc1ccc(O)cc1)C(=O)N[C@@H](CO)C(=O)N[C@@H](CCCNC(=N)N)C(=O)N[C@@H](Cc1ccc(O)cc1)C(=O)N[C@@H](CCCNC(=N)N)C(=O)N[C@@H](CCCCN)C(=O)N[C@@H](CCC(N)=O)C(=O)N[C@@H](CC(C)C)C(=O)N[C@@H](C)C(=O)N[C@H](C(=O)N[C@@H](CCCCN)C(=O)N[C@@H](CCCCN)C(=O)N[C@@H](Cc1ccc(O)cc1)C(=O)N[C@@H](CC(C)C)C(=O)N[C@@H](C)C(=O)N[C@@H](C)C(=O)N[C@H](C(=O)N[C@@H](CCCCN)C(=O)N[C@@H](CCCCN)C(=O)O)C(C)C)C(C)C)[C@@H](C)O [Peptide R3P39] |
| 0.7 nM | CC[C@H](C)[C@H](NC(=O)CNC(=O)[C@H](CC(=O)O)NC(=O)[C@H](CO)NC(=O)[C@@H](N)Cc1c[nH]cn1)C(=O)N[C@@H](Cc1ccccc1)C(=O)N[C@H](C(=O)N[C@@H](CC(=O)O)C(=O)N[C@@H](CO)C(=O)N[C@@H](Cc1ccc(O)cc1)C(=O)N[C@@H](CO)C(=O)N[C@@H](CCCNC(=N)N)C(=O)N[C@@H](Cc1ccc(O)cc1)C(=O)N[C@@H](CCCNC(=N)N)C(=O)N[C@@H](CCCCN)C(=O)N[C@@H](CCC(N)=O)C(=O)N[C@@H](CCSC)C(=O)N[C@@H](C)C(=O)N[C@H](C(=O)N[C@@H](CCCCN)C(=O)N[C@@H](CCCCN)C(=O)N[C@@H](Cc1ccc(O)cc1)C(=O)N[C@@H](CC(C)C)C(=O)N[C@@H](C)C(=O)N[C@@H](C)C(=O)N[C@H](C(=O)N[C@@H](CCCCN)C(=O)N[C@@H](CCCCN)C(=O)O)C(C)C)C(C)C)[C@@H](C)O [Peptide R3P40] |
| 0.3 nM | CC[C@H](C)[C@H](NC(=O)[C@@H](NC(=O)[C@H](CC(N)=O)NC(=O)[C@H](CC(C)C)NC(=O)[C@H](Cc1ccc(O)cc1)NC(=O)[C@H](CCCCN)NC(=O)[C@H](CCCCN)NC(=O)[C@H](C)NC(=O)[C@H](C)NC(=O)[C@H](CC(C)C)NC(=O)[C@H](CCC(N)=O)NC(=O)[C@H](CCCCN)NC(=O)[C@H](CCCNC(=N)N)NC(=O)[C@H](CC(C)C)NC(=O)[C@H](CCCNC(=N)N)NC(=O)[C@@H](NC(=O)[C@H](Cc1ccc(O)cc1)NC(=O)[C@H](CC(N)=O)NC(=O)[C@H](CC(=O)O)NC(=O)[C@@H](NC(=O)[C@H](Cc1ccccc1)NC(=O)[C@@H](NC(=O)[C@H](C)NC(=O)[C@H](CC(=O)O)NC(=O)[C@H](CO)NC(=O)[C@@H](N)Cc1c[nH]cn1)C(C)C)[C@@H](C)O)[C@@H](C)O)[C@@H](C)O)C(=O)N[C@@H](CCCCN)C(=O)N[C@@H](CC(N)=O)C(=O)N[C@@H](CCCCN)C(=O)N[C@@H](CCCNC(=N)N)C(=O)N[C@@H](Cc1ccc(O)cc1)C(=O)O [Peptide R3P67] |
| 0.4 nM | CC[C@H](C)[C@H](NC(=O)[C@@H](NC(=O)[C@H](CC(N)=O)NC(=O)[C@H](CC(C)C)NC(=O)[C@H](Cc1ccc(O)cc1)NC(=O)[C@H](CCCCN)NC(=O)[C@H](CCCCN)NC(=O)[C@H](C)NC(=O)[C@H](C)NC(=O)[C@H](CCSC)NC(=O)[C@H](CCC(N)=O)NC(=O)[C@H](CCCCN)NC(=O)[C@H](CCCNC(=N)N)NC(=O)[C@H](CC(C)C)NC(=O)[C@H](CCCNC(=N)N)NC(=O)[C@@H](NC(=O)[C@H](Cc1ccc(O)cc1)NC(=O)[C@H](CC(N)=O)NC(=O)[C@H](CC(=O)O)NC(=O)[C@@H](NC(=O)[C@H](Cc1ccccc1)NC(=O)[C@@H](NC(=O)[C@H](C)NC(=O)[C@H](CC(=O)O)NC(=O)[C@H](CO)NC(=O)[C@@H](N)Cc1c[nH]cn1)C(C)C)[C@@H](C)O)[C@@H](C)O)[C@@H](C)O)C(=O)N[C@@H](CCCCN)C(=O)N[C@@H](CC(N)=O)C(=O)N[C@@H](CCCCN)C(=O)N[C@@H](CCCNC(=N)N)C(=O)N[C@@H](Cc1ccc(O)cc1)C(=O)O [Peptide R3P70] |

Second part, the compound before the results:

| SMILES | EC50 |
| --- | --- |
| CSCC[C@H](NC(=O)[C@H](CCC(N)=O)NC(=O)[C@H](CCCCN)NC(=O)[C@H](CCCNC(=N)N)NC(=O)[C@H](Cc1ccc(O)cc1)NC(=O)[C@H](CCCNC(=N)N)NC(=O)[C@H](CO)NC(=O)[C@H](Cc1ccc(O)cc1)NC(=O)[C@H](CO)NC(=O)[C@H](CC(=O)O)NC(=O)[C@@H](NC(=O)[C@H](Cc1ccccc1)NC(=O)[C@H](CCCCN)NC(=O)CNC(=O)[C@H](CC(=O)O)NC(=O)[C@H](CO)NC(=O)[C@@H](N)Cc1c[nH]cn1)[C@@H](C)O)C(=O)N[C@@H](C)C(=O)N[C@H](C(=O)N[C@@H](CCCCN)C(=O)N[C@@H](CCCCN)C(=O)N[C@@H](Cc1ccc(O)cc1)C(=O)N[C@@H](CC(C)C)C(=O)N[C@@H](C)C(=O)N[C@@H](C)C(=O)N[C@H](C(=O)N[C@@H](CC(C)C)C(N)=O)C(C)C)C(C)C [PAC5] | 0.7 nM |
| CC[C@H](C)[C@H](NC(=O)CNC(=O)[C@H](CC(=O)O)NC(=O)[C@H](CO)NC(=O)[C@@H](N)Cc1c[nH]cn1)C(=O)N[C@@H](Cc1ccccc1)C(=O)N[C@H](C(=O)N[C@@H](CC(=O)O)C(=O)N[C@@H](CO)C(=O)N[C@@H](Cc1ccc(O)cc1)C(=O)N[C@@H](CO)C(=O)N[C@@H](CCCNC(=N)N)C(=O)N[C@@H](Cc1ccc(O)cc1)C(=O)N[C@@H](CCCNC(=N)N)C(=O)N[C@@H](CCCCN)C(=O)N[C@@H](CCC(N)=O)C(=O)N[C@@H](CCSC)C(=O)N[C@@H](CCCCN)C(=O)N[C@H](C(=O)N[C@@H](CCCCN)C(=O)N[C@@H](CCCCN)C(=O)N[C@@H](Cc1ccc(O)cc1)C(=O)N[C@@H](CC(C)C)C(=O)N[C@@H](C)C(=O)N[C@@H](C)C(=O)N[C@H](C(=O)N[C@@H](CC(C)C)C(N)=O)C(C)C)C(C)C)[C@@H](C)O [PAC18] | 1.1 nM |
| CC[C@H](C)[C@H](NC(=O)[C@H](CC(=O)O)NC(=O)[C@H](CC(N)=O)NC(=O)[C@H](CC(C)C)NC(=O)[C@H](Cc1ccc(O)cc1)NC(=O)[C@H](CCCCN)NC(=O)[C@H](CCCCN)NC(=O)[C@@H](NC(=O)[C@H](C)NC(=O)[C@H](CC(C)C)NC(=O)[C@H](CCC(N)=O)NC(=O)[C@H](CCCCN)NC(=O)[C@H](CCCNC(=N)N)NC(=O)[C@H](CC(C)C)NC(=O)[C@H](CCCNC(=N)N)NC(=O)[C@@H](NC(=O)[C@H](Cc1ccc(O)cc1)NC(=O)[C@H](CC(N)=O)NC(=O)[C@H](CC(=O)O)NC(=O)[C@@H](NC(=O)[C@H](Cc1ccccc1)NC(=O)[C@@H](NC(=O)[C@H](C)NC(=O)[C@H](CC(=O)O)NC(=O)[C@H](CO)NC(=O)[C@@H](N)Cc1c[nH]cn1)C(C)C)[C@@H](C)O)[C@@H](C)O)C(C)C)C(=O)N[C@@H](CC(C)C)C(=O)N[C@@H](CCCCN)C(=O)NCC(=O)NCC(=O)N[C@H](C(=O)O)[C@@H](C)O [Peptide R3P28] | 7 nM |
| CC[C@H](C)[C@H](NC(=O)[C@H](CC(=O)O)NC(=O)[C@H](CC(N)=O)NC(=O)[C@H](CC(C)C)NC(=O)[C@H](Cc1ccc(O)cc1)NC(=O)[C@H](CCCCN)NC(=O)[C@H](CCCCN)NC(=O)[C@H](C)NC(=O)[C@H](C)NC(=O)[C@H](CC(C)C)NC(=O)[C@H](CCC(N)=O)NC(=O)[C@H](CCCCN)NC(=O)[C@H](CCCNC(=N)N)NC(=O)[C@H](CC(C)C)NC(=O)[C@H](CCCNC(=N)N)NC(=O)[C@@H](NC(=O)[C@H](Cc1ccc(O)cc1)NC(=O)[C@H](CC(N)=O)NC(=O)[C@H](CC(=O)O)NC(=O)[C@@H](NC(=O)[C@H](Cc1ccccc1)NC(=O)[C@@H](NC(=O)[C@H](C)NC(=O)[C@H](CC(=O)O)NC(=O)[C@H](CO)NC(=O)[C@@H](N)Cc1c[nH]cn1)C(C)C)[C@@H](C)O)[C@@H](C)O)C(=O)N[C@@H](CCCCN)C(=O)N[C@@H](CCCCN)C(=O)NCC(=O)O [Peptide R3P32] | 0.4 nM |

same assay, conditions: ratio of EC50 at R2 versus EC50 at R3

| SMILES | R3 Selectivity |
| --- | --- |
| CC[C@H](C)[C@H](NC(=O)CNC(=O)[C@H](CC(=O)O)NC(=O)[C@H](CO)NC(=O)[C@@H](N)Cc1c[nH]cn1)C(=O)N[C@@H](Cc1ccccc1)C(=O)N[C@H](C(=O)N[C@@H](CC(=O)O)C(=O)N[C@@H](CO)C(=O)N[C@@H](CCCCN)C(=O)N[C@@H](CO)C(=O)N[C@@H](CCCNC(=N)N)C(=O)N[C@@H](Cc1ccc(O)cc1)C(=O)N[C@@H](CCCNC(=N)N)C(=O)N[C@@H](CCCCN)C(=O)N[C@@H](CCC(N)=O)C(=O)N[C@@H](CCSC)C(=O)N[C@@H](C)C(=O)N[C@H](C(=O)N[C@@H](CCCCN)C(=O)N[C@@H](CCCCN)C(=O)N[C@@H](Cc1ccc(O)cc1)C(=O)N[C@@H](CC(C)C)C(=O)N[C@@H](C)C(=O)N[C@@H](C)C(=O)N[C@H](C(=O)N[C@@H](CC(C)C)C(N)=O)C(C)C)C(C)C)[C@@H](C)O [PAC10] | 4 |

Reference: patent publication US6972319B1, “Pituitary adenylate cyclase activating peptide (PACAP)receptor 3 (R3) agonists and their pharmacological methods of use” (priority 1999, dated 2005)
